Test results taken from PubChem BioAssay (NCI).
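Following 48 hours of exposure in 96-well plates, responses at five concentrations were used to interpolate endpoints linearly. GI50: concentration for 50% inhibition of growth. TGI: concentration producing complete growth inhibition.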

Columns and labels:
Test in all cases: growth of human tumour cells (NCI), 48 h
[1] = system: LOX IMVI melanoma
[2] = system: NCI-H23 lung
[3] = system: RXF 393 renal
[4] = system: SF-539 CNS
[5] = system: TK-10 renal
[6] = system: UACC-257 melanoma
[7] = system: UO-31 renal

Row | Compound | TGI [1] | TGI [2] | TGI [3] | TGI [4] | TGI [5] | TGI [6] | TGI [7] | GI50 [1] | GI50 [2] | GI50 [3] | GI50 [4] | GI50 [6] | GI50 [7]
1 | COc1cccc(C=O)c1C(=O)c1cc(O)ccc1O | > 74 µM | > 100 µM | 32.2 µM | > 100 µM | > 56.7 µM | 46.3 µM | 33.6 µM |  |  |  |  |  | 
2 | COc1ccc(Nc2nc3cc(C(F)(F)F)ccc3nc2-c2ccccc2)cc1OC | > 100 µM | > 100 µM | 35.9 µM | > 100 µM | 43 µM | 99.4 µM | > 100 µM |  |  |  |  |  | 
3 | NC1N=Nc2ccccc21 (stereo unspecified) | > 100 µM | > 100 µM | > 100 µM | > 100 µM | > 100 µM | > 100 µM | > 100 µM |  |  |  |  |  | 
4 | COc1cccc2c1OC1Sc3ccccc3-c3nn(-c4ccccc4)c-2c31 (stereo unspecified) | > 100 µM | > 100 µM | > 100 µM | > 100 µM | > 100 µM | > 100 µM | > 100 µM |  |  |  |  |  | 
5 | O=C(C=Nc1ccccc1C(=O)[O-])c1cccs1.O=C(C=Nc1ccccc1C(=O)[O-])c1cccs1.[Ni+2] | > 100 µM | > 100 µM |  | > 100 µM | > 100 µM | > 100 µM | > 100 µM |  |  |  |  |  | 
6 | O=[N+]([O-])c1cc(-c2nc(=S)[nH][nH]2)ccc1O | > 100 µM | > 100 µM | > 100 µM | > 100 µM | > 100 µM | > 100 µM | > 100 µM |  |  |  |  |  | 
7 | N/C=N/S(=O)(=O)c1ccc(NC(=O)COC(=O)c2cccc3c(=O)c4ccccc4[nH]c23)cc1 | > 100 µM | > 100 µM | > 100 µM | > 100 µM | > 100 µM | > 100 µM | > 100 µM |  |  |  |  |  | 
8 | N#CCCN(CCC#N)c1ccc(/C=C(/NC(=O)c2cc([N+](=O)[O-])ccc2Cl)C(=O)NN)cc1 | > 100 µM | > 100 µM | > 100 µM | > 100 µM | > 100 µM | > 100 µM | > 100 µM |  |  |  |  |  | 
9 | Nc1nc(N)c(CCCCc2ccccc2)c(C=O)n1 | 32.8 µM | 41.3 µM |  | 36.3 µM | 93 µM | 33.3 µM | 45.4 µM |  |  |  |  |  | 
10 | COc1ccc2c(c1)Oc1cc(O)ccc1[C@H]2c1ccccc1C(=O)NC(C)c1ccccc1 (stereo partly specified) | 31.6 µM | 32.5 µM | 42 µM | 29.7 µM | 50.4 µM | 37.3 µM | 25.5 µM |  |  |  |  |  | 
11 | CC(=O)c1ccccc1NC(=O)C(=O)C(C(=O)c1ccc2ccccc2c1)C1OC(=O)c2ccccc21 (stereo unspecified) | 26.4 µM | 26.8 µM |  | 22.1 µM | 92.4 µM | 61.8 µM | 29.1 µM |  |  |  |  |  | 
12 | COc1cc2c(cc1OC)C(C#N)N(C(=O)c1ccccc1)C=C2OC(=O)c1ccccc1 (stereo unspecified) | > 100 µM | > 100 µM |  | 39 µM | 50.5 µM | 53 µM | 39.3 µM |  |  |  |  |  | 
13 | O=C(Cc1ccccc1[N+](=O)[O-])C(CO)c1ccccc1[N+](=O)[O-] (stereo unspecified) | > 100 µM | > 100 µM | > 100 µM | > 100 µM | > 100 µM | > 100 µM | > 100 µM |  |  |  |  |  | 
14 | c1ccc2c(c1)SC(=C1Sc3ccccc3S1)S2 | > 100 µM | > 100 µM | > 100 µM |  | > 100 µM |  | > 100 µM |  |  |  |  |  | 
15 | Cc1cc(=O)[nH]c(CNC(=O)c2ccc3ccccc3c2)n1 | > 100 µM | > 100 µM | > 100 µM | > 100 µM | > 100 µM | > 100 µM | > 100 µM |  |  |  |  |  | 
16 | OCC1OC2c3ccccc3COC2C1OCc1ccccc1 (stereo unspecified) |  | > 100 µM | > 100 µM |  | > 100 µM | > 100 µM | > 100 µM |  |  |  |  |  | 
17 | CCC12CCCN(Cc3ccccc3)C1c1c(n(C)c3ccccc13)C(CO)C2 (stereo unspecified) | 82 µM | 158 µM | > 257 µM | 73.9 µM | 246 µM | 95.1 µM |  |  |  |  |  |  | 
18 | [O-]/N=[N+](/[O-])C1CCCCC1=[N+]1CCOCC1 (stereo unspecified) |  | > 100 µM |  |  | > 100 µM | > 100 µM | > 100 µM |  |  |  |  |  | 
19 | COC(=O)[C@H](CC(C)C)NC(=O)[C@H](Cc1ccccc1)N1CC2C=CC1C2 (stereo partly specified) | > 100 µM | > 100 µM | > 100 µM | > 100 µM | > 100 µM | > 100 µM | > 100 µM |  |  |  |  |  | 
20 | CC1(C)NC(=O)N(CCCCCCN2C(=O)NC(C)(C)C2=O)C1=O | > 100 µM | > 100 µM | > 100 µM |  | > 100 µM | > 100 µM | > 100 µM |  |  |  |  |  | 
21 | CCc1ccccc1NC(=O)C(=O)C(C#N)c1ccccc1Cl (stereo unspecified) | 10.9 µM | > 100 µM | > 100 µM |  | 6.31 µM | > 100 µM | > 100 µM |  |  |  |  |  | 
22 | O=C(Cc1nc2ccc(C(=O)c3ccccc3)cc2[nH]c1=O)C(=O)Nc1nc2ccccc2[nH]1 | > 100 µM | > 100 µM |  | > 100 µM | > 100 µM | > 100 µM | > 100 µM |  |  |  |  |  | 
23 | O=C1C(=c2ccc(=C3C(=O)c4ccc([N+](=O)[O-])cc4[N+]3=O)cc2)N([O-])c2cc([N+](=O)[O-])ccc21 | > 100 µM | > 100 µM | > 100 µM | > 100 µM |  | > 100 µM | > 100 µM | > 100 µM | > 100 µM | > 100 µM | > 100 µM | > 100 µM | > 100 µM
